These results are taken from ChEMBL document CHEMBL4385615, “Design and Synthesis of Type-IV Inhibitors of BRAF Kinase That Block Dimerization and Overcome Paradoxical MEK/ERK Activation” (J Med Chem, 2019).

For assay [1], the target named is T1, Serine/threonine-protein kinase B-raf (Homo sapiens, UniProt P15056). The experiment in a line: Binding affinity to BRAF (unknown origin) by intrinsic tryptophan fluorescence assay.
The target of assay [2] is T1, Serine/threonine-protein kinase B-raf. The experiment in a line: Inhibition of BRAF in NRAS Q61K mutant-driven human SBcl2 cells assessed as suppression of vemurafenib-induced phosphorylation of MEK expression administered via electroporation for 30 mins followed by vemurafenib addition and measured after 1 hr by Western blot analysis. A general note: Immunoblotting shows a protein as a band on a membrane.

For assay [3], the system named is MCF-10A. In words: Antiproliferative activity against EGF-dependent human MCF10A cells assessed as inhibition of colony growth at 2 uM supplemented with fresh medium containing compound every 2 days for 11 days. It counts as functional.
Assay [4] deals with T1, Serine/threonine-protein kinase B-raf. In words: Inhibition of BRAF in NRAS Q61K mutant-driven human SBcl2 cells assessed as suppression of vemurafenib-induced phosphorylation of ERK expression at 300 uM administered via electroporation for 30 mins followed by vemurafenib addition and measured after 1 hr by Western blot analysis.
The target is the same in assay [5]. The experiment in a line: Inhibition of BRAF in NRAS Q61K mutant-driven human SBcl2 cells assessed as suppression of vemurafenib-induced phosphorylation of ERK expression administered via electroporation for 30 mins followed by vemurafenib addition and measured after 1 hr by Western blot analysis.
Assay [6] has the same target. The experiment in a line: Inhibition of BRAF in NRAS Q61K mutant-driven human SBcl2 cells assessed as suppression of vemurafenib-induced phosphorylation of MEK expression at 300 uM administered via electroporation for 30 mins followed by vemurafenib addition and measured after 1 hr by Western blot analysis.
Assay [7] deals with MCF-10A. The experiment in a line: Antiproliferative activity against EGF-dependent human MCF10A cells assessed as inhibition of colony growth at 1.5 uM supplemented with fresh medium containing compound every 2 days for 11 days. It counts as functional.

The term Kd denotes the free concentration of one partner at which half of the binding sites on the other are occupied at equilibrium, for simple one-to-one binding. The inhibition is the percentage by which the read-out fell short of the control.

SMILES strings stand for the structures. Peptide text beside a SMILES is read from it.

T1 sequence (P15056 whole entry): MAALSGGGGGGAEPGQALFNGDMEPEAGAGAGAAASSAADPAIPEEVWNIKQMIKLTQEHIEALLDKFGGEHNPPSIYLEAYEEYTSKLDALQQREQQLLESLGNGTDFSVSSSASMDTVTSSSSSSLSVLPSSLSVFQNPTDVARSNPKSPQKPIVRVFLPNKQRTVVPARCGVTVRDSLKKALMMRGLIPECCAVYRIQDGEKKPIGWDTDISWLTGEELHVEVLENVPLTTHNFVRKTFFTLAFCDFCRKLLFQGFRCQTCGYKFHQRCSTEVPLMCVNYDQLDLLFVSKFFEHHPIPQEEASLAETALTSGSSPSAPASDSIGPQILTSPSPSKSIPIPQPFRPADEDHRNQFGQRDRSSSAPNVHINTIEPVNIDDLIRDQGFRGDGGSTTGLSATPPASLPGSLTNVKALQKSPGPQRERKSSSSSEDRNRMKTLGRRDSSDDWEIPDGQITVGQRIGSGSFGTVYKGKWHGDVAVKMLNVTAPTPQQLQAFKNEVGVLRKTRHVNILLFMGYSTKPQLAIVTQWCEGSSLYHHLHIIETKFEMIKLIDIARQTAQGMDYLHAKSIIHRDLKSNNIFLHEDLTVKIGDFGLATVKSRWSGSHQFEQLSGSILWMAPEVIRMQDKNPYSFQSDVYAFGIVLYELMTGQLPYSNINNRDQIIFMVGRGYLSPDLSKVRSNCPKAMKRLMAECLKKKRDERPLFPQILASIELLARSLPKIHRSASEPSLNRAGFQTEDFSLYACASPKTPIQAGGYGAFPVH

`CC[C@H](C)[C@H](NC(=O)[C@H](CC(N)=O)NC(=O)[C@H](C)NC(=O)[C@H](Cc1cnc[nH]1)NC(=O)[C@H](CCCNC(=N)N)NC(=O)[C@@H](NC(=O)[C@H](CCCCN)NC(=O)[C@H](CCCNC(=N)N)NC(=O)[C@H](CC(C)C)NC(=O)[C@@H](NC(=O)CN)C(C)C)[C@@H](C)O)C(=O)N[C@@H](CC(C)C)C(=O)N[C@@H](CC(C)C)C(=O)N[C@@H](Cc1ccccc1)C(=O)N[C@@H](CCSC)C(=O)NCC(=O)N[C@@H](Cc1ccc(O)cc1)C(=O)N[C@@H](CO)C(=O)N[C@H](C(=O)O)[C@@H](C)O`: in assay [1] (read-out: Kd), the Kd came out at 4750 nM.

As to `CC[C@H](C)[C@H](NC(=O)[C@H](CC(N)=O)NC(=O)[C@@H](NC(=O)[C@H](Cc1ccccc1)NC(=O)[C@H](CCCNC(=N)N)NC(=O)[C@@H](NC(=O)[C@H](CCCCN)NC(=O)[C@H](CCCNC(=N)N)NC(=O)[C@H](CC(C)C)NC(=O)[C@@H](NC(=O)CN)C(C)C)[C@@H](C)O)C(C)C)C(=O)N[C@@H](CC(C)C)C(=O)N[C@@H](CC(C)C)C(=O)N[C@@H](Cc1ccccc1)C(=O)N[C@@H](CCSC)C(=O)NCC(=O)N[C@@H](Cc1ccc(O)cc1)C(=O)N[C@@H](CO)C(=O)N[C@H](C(=O)O)[C@@H](C)O`, the Kd result in assay [1] is given as “Not Active”.

`CC[C@H](C)[C@H](NC(=O)[C@H](CC(N)=O)NC(=O)[C@@H](NC(=O)[C@H](Cc1cnc[nH]1)NC(=O)[C@H](CCCNC(=N)N)NC(=O)[C@H](CC(=O)O)NC(=O)[C@H](CCCCN)NC(=O)[C@H](CCCNC(=N)N)NC(=O)[C@H](CC(C)C)NC(=O)[C@@H](NC(=O)CN)C(C)C)C(C)C)C(=O)N[C@@H](CC(C)C)C(=O)N[C@@H](CC(C)C)C(=O)N[C@@H](Cc1ccccc1)C(=O)N[C@@H](CCSC)C(=O)NCC(=O)N[C@@H](Cc1ccc(O)cc1)C(=O)N[C@@H](CO)C(=O)N[C@H](C(=O)O)[C@@H](C)O`: in assay [1] (read-out: Kd), the Kd is 2200 nM.

Take `CC[C@H](C)[C@H](NC(=O)[C@H](CC(N)=O)NC(=O)[C@@H](NC(=O)[C@H](Cc1cnc[nH]1)NC(=O)[C@H](CCCNC(=N)N)NC(=O)[C@@H](NC(=O)[C@H](CCCCN)NC(=O)[C@H](CCCNC(=N)N)NC(=O)[C@H](CC(C)C)NC(=O)[C@@H](NC(=O)CN)C(C)C)[C@@H](C)O)C(C)C)C(=O)N[C@@H](C)C(=O)N[C@@H](CC(C)C)C(=O)N[C@@H](Cc1ccccc1)C(=O)N[C@@H](CCSC)C(=O)NCC(=O)N[C@@H](Cc1ccc(O)cc1)C(=O)N[C@@H](CO)C(=O)N[C@H](C(=O)O)[C@@H](C)O`: the Kd in assay [1] (read-out: Kd) came to 9800 nM.

For `CC[C@H](C)[C@H](NC(=O)[C@H](CC(N)=O)NC(=O)[C@@H](NC(=O)[C@H](Cc1cnc[nH]1)NC(=O)[C@H](CCCNC(=N)N)NC(=O)[C@@H](NC(=O)[C@H](CCCCN)NC(=O)[C@H](CCCNC(=N)N)NC(=O)[C@H](CC(C)C)NC(=O)[C@@H](NC(=O)CN)C(C)C)[C@@H](C)O)C(C)C)C(=O)N[C@@H](CC(C)C)C(=O)N[C@@H](CC(C)C)C(=O)N[C@@H](Cc1ccccc1)C(=O)N[C@@H](CCSC)C(=O)NCC(=O)O` (H-GVLRKTRHVNILLFMG-OH), the Kd in assay [1] (read-out: Kd) was 1880 nM.

Consider `CC[C@H](C)[C@H](NC(=O)[C@H](CC(N)=O)NC(=O)[C@@H](NC(=O)[C@H](Cc1cnc[nH]1)NC(=O)[C@H](CCCNC(=N)N)NC(=O)[C@@H](NC(=O)[C@H](CCCCN)NC(=O)[C@H](CCCNC(=N)N)NC(=O)[C@H](CC(C)C)NC(=O)[C@@H](NC(=O)CN)C(C)C)[C@@H](C)O)C(C)C)C(=O)N[C@@H](CC(C)C)C(=O)N[C@@H](CC(C)C)C(=O)N[C@@H](Cc1ccccc1)C(=O)N[C@@H](CCSC)C(=O)NCC(=O)N[C@@H](Cc1ccc(O)cc1)C(=O)N[C@@H](CO)C(=O)N[C@H](C(=O)O)[C@@H](C)O`, for which the inhibition result in assay [2] is “Dose-dependent effect”; in assay [4], 100%; in assay [5], “Dose-dependent effect”; in assay [6], 100%. Further, the “inhibition (INH)” value in the assay on MCF-10A [3] amounted to 100%.

For the compound `CC[C@H](C)[C@H](NC(=O)[C@H](CC(N)=O)NC(=O)[C@@H](NC(=O)[C@H](Cc1cnc[nH]1)NC(=O)[C@H](CCCNC(=N)N)NC(=O)[C@@H](NC(=O)[C@H](CCCCN)NC(=O)[C@H](CC(C)C)NC(=O)[C@H](CC(C)C)NC(=O)[C@@H](NC(=O)CN)C(C)C)[C@@H](C)O)C(C)C)C(=O)N[C@@H](CC(C)C)C(=O)N[C@@H](CC(C)C)C(=O)N[C@@H](Cc1ccccc1)C(=O)N[C@@H](CCSC)C(=O)NCC(=O)N[C@@H](Cc1ccc(O)cc1)C(=O)N[C@@H](CO)C(=O)N[C@H](C(=O)O)[C@@H](C)O`, the Kd in assay [1] (read-out: Kd) amounted to 540 nM.

For the compound `CC[C@H](C)[C@H](NC(=O)[C@H](CC(N)=O)NC(=O)[C@@H](NC(=O)[C@H](Cc1cnc[nH]1)NC(=O)[C@H](CCCNC(=N)N)NC(=O)[C@@H](NC(=O)[C@H](CCCCN)NC(=O)[C@H](CCC(=O)O)NC(=O)[C@H](CC(C)C)NC(=O)[C@@H](NC(=O)CN)C(C)C)[C@@H](C)O)C(C)C)C(=O)N[C@@H](CC(C)C)C(=O)N[C@@H](CC(C)C)C(=O)N[C@@H](Cc1ccccc1)C(=O)N[C@@H](CCSC)C(=O)NCC(=O)N[C@@H](Cc1ccc(O)cc1)C(=O)N[C@@H](CO)C(=O)N[C@H](C(=O)O)[C@@H](C)O`, the Kd in assay [1] (read-out: Kd) was determined as 1090 nM.

With `CC[C@H](C)[C@H](NC(=O)[C@H](C)NC(=O)[C@@H](NC(=O)[C@H](Cc1cnc[nH]1)NC(=O)[C@H](CCCNC(=N)N)NC(=O)[C@@H](NC(=O)[C@H](CCCCN)NC(=O)[C@H](CCCNC(=N)N)NC(=O)[C@H](CC(C)C)NC(=O)[C@@H](N)C(C)C)[C@@H](C)O)C(C)C)C(=O)N[C@@H](CC(C)C)C(=O)N[C@@H](CC(C)C)C(=O)N[C@@H](Cc1ccccc1)C(=O)N[C@@H](CCSC)C(=O)NCC(=O)O` (H-VLRKTRHVAILLFMG-OH), the Kd result in assay [1] is “Not Active”.

In the case of `CC[C@H](C)[C@H](NC(=O)[C@H](CC(N)=O)NC(=O)[C@@H](NC(=O)[C@H](Cc1cnc[nH]1)NC(=O)[C@H](Cc1cnc[nH]1)NC(=O)[C@@H](NC(=O)[C@H](CCCCN)NC(=O)[C@H](CCCNC(=N)N)NC(=O)[C@H](CC(C)C)NC(=O)[C@@H](NC(=O)CN)C(C)C)[C@@H](C)O)C(C)C)C(=O)N[C@@H](CC(C)C)C(=O)NCC(=O)N[C@@H](Cc1ccccc1)C(=O)N[C@@H](Cc1c[nH]c2ccccc12)C(=O)NCC(=O)N[C@@H](Cc1ccc(O)cc1)C(=O)N[C@@H](CO)C(=O)N[C@H](C(=O)O)[C@@H](C)O` (H-GVLRKTHHVNILGFWGYST-OH), in assay [1], the Kd entry is given as “Not Active”.

Consider `CC[C@H](C)[C@H](NC(=O)[C@H](CC(C)C)NC(=O)[C@@H](NC(=O)[C@H](CC(N)=O)NC(=O)[C@@H](NC(=O)[C@H](Cc1cnc[nH]1)NC(=O)[C@H](CCCNC(=N)N)NC(=O)[C@@H](NC(=O)[C@H](CCCCN)NC(=O)[C@H](CCCNC(=N)N)NC(=O)[C@H](CC(C)C)NC(=O)[C@@H](NC(=O)CN)C(C)C)[C@@H](C)O)C(C)C)[C@@H](C)CC)C(=O)N[C@@H](Cc1ccccc1)C(=O)N[C@@H](CCSC)C(=O)NCC(=O)N[C@@H](Cc1ccc(O)cc1)C(=O)N[C@@H](CO)C(=O)N[C@H](C(=O)O)[C@@H](C)O`, for which, in assay [1] (read-out: Kd), the Kd was found to be 4100 nM.

With `CC[C@H](C)[C@H](NC(=O)[C@H](CC(N)=O)NC(=O)[C@@H](NC(=O)[C@H](Cc1cnc[nH]1)NC(=O)[C@H](CCCNC(=N)N)NC(=O)[C@@H](NC(=O)[C@H](CCCCN)NC(=O)[C@H](CCCNC(=N)N)NC(=O)[C@H](CC(C)C)NC(=O)[C@@H](N)C(C)C)[C@@H](C)O)C(C)C)C(=O)N[C@@H](CC(C)C)C(=O)N[C@@H](CC(C)C)C(=O)N[C@@H](Cc1ccccc1)C(=O)N[C@@H](CCSC)C(=O)NCC(=O)O`, the “inhibition (INH)” value in the assay on MCF-10A [7] is reported as 100%.

On to `CC[C@H](C)[C@H](NC(=O)[C@H](CC(N)=O)NC(=O)[C@@H](NC(=O)[C@H](Cc1cnc[nH]1)NC(=O)[C@H](CCCNC(=N)N)NC(=O)[C@@H](NC(=O)[C@H](CCCCN)NC(=O)[C@H](CCCNC(=N)N)NC(=O)[C@H](CC(C)C)NC(=O)[C@@H](NC(=O)CN)C(C)C)[C@@H](C)O)C(C)C)C(=O)N[C@@H](CC(C)C)C(=O)N[C@@H](CC(C)C)C(=O)N[C@@H](CC(=O)O)C(=O)N[C@@H](CCSC)C(=O)NCC(=O)N[C@@H](Cc1ccc(O)cc1)C(=O)N[C@@H](CO)C(=O)N[C@H](C(=O)O)[C@@H](C)O`, for which the Kd entry in assay [1] was “Not Active”.

With `CSCC[C@@H]1NC(=O)[C@H](Cc2ccccc2)NC(=O)[C@H](CC(C)C)NC(=O)[C@H](CC(C)C)NC(=O)[C@H](CCC(=O)O)NC(=O)[C@H](CC(N)=O)NC(=O)[C@H](C(C)C)NC(=O)[C@H](Cc2cnc[nH]2)NC(=O)[C@H](CCCNC(=N)N)NC(=O)[C@H](CCCCN)NC(=O)[C@H](CCCCN)NC(=O)[C@H](CCCNC(=N)N)NC(=O)[C@H](CC(C)C)NC(=O)CNC1=O`, in assay [1] (read-out: Kd), the Kd stood at 1890 nM.
